Results on two compounds are retold here after patent publication US20220363705A1, “METHOD FOR MANUFACTURING REVAUDIOSIDE-D-CONTAINING CRYSTALLIZED PRODUCT, AND REVAUDIOSIDE-D-CONTAINING CRYSTALLIZED PRODUCT” (SUNTORY HOLDINGS LIMITED, priority 2019, published 2022).

Each structure is given as a SMILES string.

The nature of the series: Saturated solubility in ethanol solvent (excess loaded, stirred 24 hours, 0.45-um filtrate measured with LCMS). In kind it is physicochemical. The conditions noted are these: for saturated solubility used in calculation of the degree of supersaturation: 90% by mass of EtOH, 10° C.; for saturated dissolution concentration: 90% ethanol solvent at 10° C., according to FIG. 1. How it is done:
The saturated solubility is herein measured according to the following method. That is, 100 ml of a solvent having a predetermined ethanol concentration (w/w) is placed in a container (having a volume of 100 ml or 200 ml, suitably 200 ml), the liquid temperature is set to 10° C. by a water bath in advance, and then the solvent is stirred at 200 rpm, and a target substance is loaded in an excessive amount (amount until suspension is made). After 24 hours, a filtrate is obtained by a 0.45-um membrane filter, and the amount of the target substance (RebA or RebD) included in the filtrate is measured with LCMS. LCMS here used is suitably LCMS 8050 manufactured by Shimadzu Corporation.
Specifically, 100 ml of a solvent having a predetermined ethanol concentration (w/w) was placed in a […] glass container (separable round-bottomed flask, Tokyo Rikakikai Co., Ltd.), set to a predetermined temperature by a water bath (PCC-7000, Tokyo Rikakikai Co., Ltd.) in advance, and then stirred (SPZ-100, Tokyo Rikakikai Co., Ltd.) at 200 rpm, and RebA (J-100, Morita Kagaku Kogyo Co., Ltd.) or RebD (Jining Renewal & Joint International, China) was loaded in an excessive amount (amount until suspension was achieved). After 24 hours, a filtrate was obtained by a 0.45-um membrane filter, the amount of RebA or RebD included in the filtrate was measured with LCMS (LCMS 8050 manufactured by Shimadzu Corporation), and the solubility curve was created. The results are illustrated in FIG. 1.

With `C=C1C[C@@]23CC[C@H]4[C@@](C)(CCC[C@@]4(C)C(=O)O[C@@H]4O[C@H](CO)[C@@H](O)[C@H](O)[C@H]4O)[C@@H]2CC[C@]1(O[C@@H]1O[C@H](CO)[C@@H](O)[C@H](O[C@@H]2O[C@H](CO)[C@@H](O)[C@H](O)[C@H]2O)[C@H]1O[C@@H]1O[C@H](CO)[C@@H](O)[C@H](O)[C@H]1O)C3` [RebA, rebaudioside A], the “saturated solubility used in calculation of the degree of supersaturation” value is recorded as 8270.5 ppm and the saturated dissolution concentration is recorded as 8,250 ppm.
Consider `C=C1C[C@@]23CC[C@H]4[C@@](C)(CCC[C@@]4(C)C(=O)O[C@@H]4O[C@H](CO)[C@@H](O)[C@H](O)[C@H]4O[C@@H]4O[C@H](CO)[C@@H](O)[C@H](O)[C@H]4O)[C@@H]2CC[C@]1(O[C@@H]1O[C@H](CO)[C@@H](O)[C@H](O[C@@H]2O[C@H](CO)[C@@H](O)[C@H](O)[C@H]2O)[C@H]1O[C@@H]1O[C@H](CO)[C@@H](O)[C@H](O)[C@H]1O)C3` [RebD, rebaudioside D], for which the “saturated solubility used in calculation of the degree of supersaturation” value is recorded as 99.33 ppm and the saturated dissolution concentration is reported as 99.3 ppm.
